The source made the active and inactive calls.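 How the source made its calls: active means statistically significant rise in LC3 puncta area per cell versus the same autophagy inducer given alone; inactive means the rest.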

We go through three molecules from PubChem BioAssay AID1963955 (Xavier Lab, Infectious Disease and Microbiome Program, …, 2024).

The nature of assay [1]: autophagy inducers by MAP1LC3 foci formation, imaging, murine bone marrow-derived macrophages, green fluorescent protein-tagged MAP1LC3 (AID 1963955). The note with it: mouse BMDM GFP-LC3 puncta imaging, 4 h, active compounds read high.
For assay [2], the system named is mouse BMDM GFP-LC3 puncta imaging, 4 h. The description is as above.

On to `CS(C)=O`, for which the LC3 puncta area per cell in assay [1] (no co-treatment) is 7.38 um2/cell (inactive); in assay [1] (with HBSS), 9.2 um2/cell.
Broadly, the EC50 is the midpoint of the concentration-response curve. For the molecule `CCC(C)(C)C(=O)C(=O)N1CCCC[C@H]1C(=O)N[C@H](CCc1ccc(OC)cc1)C(=O)N1[C@@H]2CC[C@H]1CC(Nc1nc(NCCc3sc(N)nc3C)nc(N3CCn4ncnc4C3)n1)C2` (stereo not given in full), the EC50 in assay [2] (no co-treatment, at 20 µM) is 44.6 µM; in assay [2] (no co-treatment, at 40 µM), 44.6 µM; in assay [2] (with HBSS, at 20 µM), 22.7 µM; in assay [2] (with HBSS, at 40 µM), 22.7 µM.
Regarding `CCC(C)(C)C(=O)C(=O)N1CCCC[C@H]1C(=O)N[C@H](CCc1ccc(OC)cc1)C(=O)N1[C@@H]2CC[C@H]1CC(Nc1nc(NCCc3ccccc3)nc(N3CCn4ncnc4C3)n1)C2` (stereo not given in full), the LC3 puncta area per cell in assay [1] (at 20 µM, no co-treatment) was 5.15 um2/cell (inactive); in assay [1] (at 20 µM, with HBSS), 10.8 um2/cell (inactive); in assay [1] (at 40 µM, no co-treatment), 5.34 um2/cell (inactive); in assay [1] (at 40 µM, with HBSS) it was 11.1 um2/cell.
